Some test systems named below: A498 renal; HOP-92 NSCLC; K-562 leukemia; LOX IMVI melanoma; MOLT-4 leukemia; NCI-H226 lung; NCI-H23 lung; SF-268 CNS; SF-295 CNS; HCT-116 colon.
Holding throughout (assay): inhibition of tumour cell growth, NCI panel, 48 h

Drawing on PubChem BioAssay (NCI), this text covers TGI and GI50 for eleven molecules.

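Assay format: 96-well plates, 48-hour exposure. At the GI50, growth is halved. TGI marks complete inhibition of growth.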

As to `Cc1ccc(S(=O)(=O)N[C@H](C(=O)O)c2ccccc2)cc1`, the TGI in the test with A498 renal, in the test on HOP-92 NSCLC, in the test on K-562 leukemia, with LOX IMVI melanoma, in the test on MOLT-4 leukemia and in the test on NCI-H226 lung was above 100 µM each time. Also, the TGI in the test on NCI-H23 lung, with SF-268 CNS and with SF-295 CNS was above 100 µM in each case.
With `N=C(N)c1ccc(OCc2cccc(COc3ccc(C(=N)N)cc3)c2)cc1`, the GI50 with HCT-116 colon was 5.22 µM; in the test on HOP-92 NSCLC it was 3.01 µM; with K-562 leukemia, 3.62 µM; in the test on MOLT-4 leukemia, 16.3 µM; in the test with NCI-H226 lung, 7.2 µM; in the test on NCI-H23 lung, 8.59 µM. The GI50 with SF-268 CNS was 5.53 µM; in the test with SF-295 CNS it was 2.82 µM. The TGI was found to be 16.9 µM with HCT-116 colon; 9.32 µM with HOP-92 NSCLC; 19 µM in the test on K-562 leukemia; 45.4 µM in the test on MOLT-4 leukemia; 23.1 µM in the test with NCI-H226 lung; 27.9 µM in the test on NCI-H23 lung. Besides, the TGI in the test on SF-268 CNS was 18.5 µM; in the test with SF-295 CNS, 9.35 µM.
Regarding `COc1ccc(C(=O)c2cc(OC)c(OC)c(OC)c2)cc1`, the TGI was above 25.8 µM in the test with HCT-116 colon; above 100 µM with HOP-92 NSCLC; above 100 µM with K-562 leukemia; above 82.2 µM in the test on LOX IMVI melanoma; 20.2 µM in the test on MOLT-4 leukemia; 37.9 µM with NCI-H226 lung. In addition, the TGI is above 100 µM in the test on NCI-H23 lung, above 86.8 µM in the test on SF-268 CNS and 0.196 µM in the test with SF-295 CNS.
For `NC1=NC(=O)/C(=C/c2ccccc2[N+](=O)[O-])C(N)=N1`, the TGI in the test on HCT-116 colon, in the test on HOP-92 NSCLC, in the test on K-562 leukemia, in the test with LOX IMVI melanoma, with MOLT-4 leukemia and with NCI-H226 lung was above 100 µM in each case. Also, the TGI with NCI-H23 lung and in the test with SF-295 CNS was above 100 µM throughout.
With `C[N+](C)(C)CC1CCCC/C1=N\OC(=O)c1ccccc1` (stereo unspecified), the TGI in the test with HCT-116 colon, with HOP-92 NSCLC, in the test on K-562 leukemia, with LOX IMVI melanoma, with MOLT-4 leukemia and in the test with NCI-H23 lung was above 100 µM throughout. In addition, the TGI in the test with SF-268 CNS and with SF-295 CNS was above 100 µM throughout.
In the case of `OC(c1cccc(-n2ccc(C(F)(F)F)n2)c1)c1cnccc1NC1CCCCCC1` (stereo unspecified), the GI50 in the test with HCT-116 colon was 1.79 µM; in the test on HOP-92 NSCLC it was 1.21 µM; in the test with K-562 leukemia, 1.37 µM; in the test with LOX IMVI melanoma, 1.69 µM; in the test on MOLT-4 leukemia, 2.16 µM; in the test with NCI-H23 lung it was 1.74 µM. Moreover, the GI50 in the test on SF-268 CNS is 1.69 µM; in the test on SF-295 CNS it was 1.79 µM. Moreover, the TGI in the test with HCT-116 colon stood at 3.59 µM; in the test with HOP-92 NSCLC, 2.53 µM; in the test on K-562 leukemia, 4.96 µM; in the test on LOX IMVI melanoma, 3.12 µM; in the test on MOLT-4 leukemia it was 4.83 µM; in the test on NCI-H23 lung, 3.2 µM. Besides, the figures for the TGI in the test on SF-268 CNS and with SF-295 CNS were 3.25 µM and 3.2 µM, respectively.
For `COc1cccc2c1C(=O)C=CC2=O`, the TGI with A498 renal was determined as 29.9 µM; with HCT-116 colon, 12.1 µM; in the test with HOP-92 NSCLC, 3.75 µM; in the test on K-562 leukemia it was 4.97 µM; in the test on MOLT-4 leukemia it was 2.34 µM; with NCI-H226 lung it was 38.3 µM. The figures for the TGI with NCI-H23 lung, in the test on SF-268 CNS and with SF-295 CNS were 30 µM, 19.8 µM and 29.2 µM, respectively.
As for `CCN(CC)CCOCC[C@H]1CC[C@H]2[C@@H]3[C@H](C)Cc4cc(OS(N)(=O)=O)ccc4[C@H]3CC[C@]12C`, the GI50 with A498 renal is 1.54 µM; in the test with HCT-116 colon, 0.696 µM; with HOP-92 NSCLC, 1.39 µM; in the test with K-562 leukemia, 0.547 µM; in the test with LOX IMVI melanoma, 1.33 µM; with MOLT-4 leukemia, 1.53 µM. Further, the GI50 in the test on NCI-H23 lung was 1.06 µM; in the test with SF-268 CNS it was 1.31 µM; in the test on SF-295 CNS it was 0.626 µM. Moreover, the TGI in the test with A498 renal came out at 3.96 µM; in the test on HCT-116 colon it was 2.08 µM; with HOP-92 NSCLC, 3.5 µM; in the test with K-562 leukemia, 2.26 µM; with LOX IMVI melanoma, 2.77 µM; with MOLT-4 leukemia it was 4.31 µM. Also, the values for the TGI in the test with NCI-H23 lung, with SF-268 CNS and in the test on SF-295 CNS were 2.92 µM, 2.66 µM and 2.14 µM, respectively.
For `COc1ccc(OC)c(/C=N/NC(=O)Cc2csc3nc(-c4ccc(Br)cc4)cn23)c1`, the GI50 in the test on HCT-116 colon was 4.57 µM; with HOP-92 NSCLC, 13.9 µM; in the test with K-562 leukemia it was 2.94 µM; with LOX IMVI melanoma, 12.6 µM; in the test with MOLT-4 leukemia, 3.47 µM; in the test with NCI-H23 lung, 19.3 µM. Also, the GI50 is above 100 µM in the test on SF-268 CNS and 12.3 µM with SF-295 CNS. The TGI in the test with HCT-116 colon came to 15.9 µM; in the test with HOP-92 NSCLC it was 35.5 µM; with K-562 leukemia it was 6.94 µM; in the test on LOX IMVI melanoma, 47.4 µM; in the test on MOLT-4 leukemia, 8.08 µM; with NCI-H23 lung it was 52.3 µM. Further, the TGI in the test on SF-268 CNS is above 100 µM; in the test on SF-295 CNS, 34.6 µM.
Regarding `Nc1ccc2c(c1)C(=O)C(=O)c1c-2nc2ccccn12`, the GI50 in the test on A498 renal was 1.57 µM; in the test with HCT-116 colon, 1.04 µM; with HOP-92 NSCLC, 2 µM; in the test with K-562 leukemia it was 1.09 µM; in the test on LOX IMVI melanoma, 0.327 µM; in the test on MOLT-4 leukemia it was 1.96 µM. Besides, the figures for the GI50 with NCI-H226 lung, in the test on NCI-H23 lung and with SF-295 CNS were 1.72 µM, 0.576 µM and 1.53 µM, respectively. Also, the TGI stood at 3.37 µM with A498 renal; 2.29 µM in the test with HCT-116 colon; 4.21 µM in the test with HOP-92 NSCLC; 3.88 µM in the test on K-562 leukemia; 1.33 µM with LOX IMVI melanoma; 4.88 µM with MOLT-4 leukemia. Besides, the TGI with NCI-H226 lung was 3.75 µM; in the test with NCI-H23 lung it was 3.05 µM; in the test with SF-295 CNS, 2.89 µM.
Turning to `CC1CC(C2=CC=CCS2)=Nc2ccccc2S1` (stereo unspecified), the TGI in the test on A498 renal, in the test with HCT-116 colon, in the test on HOP-92 NSCLC, in the test on K-562 leukemia, with LOX IMVI melanoma and in the test with MOLT-4 leukemia was above 100 µM in each case. In addition, the TGI in the test with NCI-H23 lung, in the test on SF-268 CNS and in the test with SF-295 CNS was above 100 µM in each case.
